In patent US5002949A, “5-substituted-6-aminopyrimidine derivatives” (American Home Products Corporation, priority 1990, dated 1991):
Counter-ions that a name gives are not always drawn.

What was measured:
[1] = tested on: platelet aggregation induced by epinephrine; experiment: inhibition of platelet aggregation induced by epinephrine; type: cell-based; conditions: Epinephrine (second phase)
Text: (§1) As representative compounds, 5-bromo-6-[[(5-bromo-3-pyridinylmethyl]amino]-2-methyl-4(1H)-pyrimidinone,HBr (Compound A) and 5-cyano-2-methyl-6-[[3-pyridinyl)methyl)]amino]-4(1H)-pyrimidinone hydrochloride (Compound B) inhibited platelet aggregation as follows.

white thrombus formation = experiment: inhibition of white thrombus formation in the rabbit arteriovenous model; type: in vivo
[2] = tested on: platelet aggregation induced by adenosine diphosphate; experiment: inhibition of platelet aggregation induced by adenosine diphosphate (ADP); type: cell-based; conditions: ADP (second phase)
Text: as §1

[3] = tested on: platelet aggregation induced by U46619 (endoperoxide); experiment: inhibition of platelet aggregation induced by U46619 (endoperoxide); type: cell-based
Text: as §1

[4] = tested on: platelet aggregation induced by arachidonic acid; experiment: inhibition of platelet aggregation induced by arachidonic acid; type: cell-based
Text: as §1

[5] = tested on: platelet aggregation induced by collagen; experiment: inhibition of platelet aggregation induced by collagen; type: cell-based
Text: as §1

| IC50 [1] | IC50 [2] | IC50 [3] | IC50 [4] | IC50 [5] | SMILES | Percent Inhibition (thrombus weight) (white thrombus formation; 0.5 mg/kg i.v.) | Percent Inhibition (thrombus weight) (white thrombus formation; 1.0 mg/kg i.v.) | Percent Inhibition (thrombus weight) (white thrombus formation; 5.0 mg/kg i.v.) | Percent Inhibition (thrombus weight) (white thrombus formation; 0.1 mg/kg i.v.) | Percent Inhibition (thrombus weight) (white thrombus formation; 0.25 mg/kg i.v.) |
| --- | --- | --- | --- | --- | --- | --- | --- | --- | --- | --- |
| 10800 nM | 6300 nM | 6600 nM | 2800 nM | 13300 nM | Cc1nc(NCc2cccnc2)c(C#N)c(=O)[nH]1 [Compound B, 5-cyano-2-methyl-6-[[3-pyridinyl)methyl)]amino]-4(1H)-pyrimidinone hydrochloride] | 41.7% | 56.8% | 76.7% | – | – |
| 430 nM | 200 nM | 210 nM | 180 nM | 540 nM | Cc1nc(NCc2cncc(Br)c2)c(Br)c(=O)[nH]1 [Compound A] | – | – | – | 28.4% | 47.1% |
